Assay results: US20240246941A1, “SUBSTITUTED 4-(3-AMINOPROP-1-YL)AMINOQUINOLINE ANALOGS AS MODULATORS OF MELANOMA-ASSOCIATED ANTIGEN 11 UBIQUITIN LIGASE” (ST. JUDE CHILDREN'S RESEARCH HOSPITAL, INC., priority 2020, published 2024)

What follows are molecules tested against interaction between GST-MAGEA11 MHD and FAM-PCF11_4 peptide (MAGE-A11:PCF11) (Homo sapiens (Human), UniProt P43364) (assay: TR-FRET dose response competition assay for disruption of MAGE-A11:PCF11 binding). Settings: Dose response TR-FRET screening of nine scaffold groups against MAGE-A11:PCF11; read-out: consensus IC50.
Sequence of interaction between GST-MAGEA11 MHD and FAM-PCF11_4 peptide (MAGE-A11:PCF11) (P43364 218-429): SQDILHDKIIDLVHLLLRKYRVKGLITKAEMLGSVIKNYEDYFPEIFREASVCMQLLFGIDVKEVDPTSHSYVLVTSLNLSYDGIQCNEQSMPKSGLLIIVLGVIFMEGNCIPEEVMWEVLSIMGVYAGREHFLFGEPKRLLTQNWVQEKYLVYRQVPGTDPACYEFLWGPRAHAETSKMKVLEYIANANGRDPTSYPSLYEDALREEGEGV
Outline: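 Competition TR-FRET at room temperature in 50 mM Tris pH 7.5, 20 mM MgCl2, 0.1 mg/ml BSA, 1 mM DTT: final 5 nM GST-MAGEA11 MHD, 5 nM Tb-anti-GST, 200 nM FAM-PCF11_4, 90 min. Ratio 520/490 nm converted to % inhibition; IC50 from sigmoidal fit.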

Row | Compound | IC50 [µM]
1 | C=CCN(CC=C)C(=O)Cn1cnc2cc(-c3ccc(OC)cc3)sc2c1=O [SJ000431447-1] | 69.9
2 | CC(C)Cc1ccc2c(NCCCNCc3cccc4c3OCO4)ccnc2c1 [SJ000311260-1] | 69.9
3 | N#Cc1cccc(CNCCCNc2ccnc3cc(Cl)ccc23)c1 [SJ000523063-1] | 69.9
4 | Cc1cccc(NC2=C(Cl)C(=O)c3ccccc3C2=O)c1 [SJ000024925-1] | 69.9
5 | COc1ccc(F)cc1CNCCCNc1ccnc2cc(Oc3ccccc3OC)ccc12 [SJ000311213-1] | 69.9
6 | COc1cccc(CNCCCNc2ccnc3cc(CCc4ccccc4)ccc23)c1O [SJ000311255-1] | 26.5
7 | CN(C)c1ccc(NC2=C(Cl)C(=O)c3ccccc3C2=O)cc1 [SJ000109503-1] | 3.3
8 | COP(=O)(OC)c1nc(-c2ccc(Cl)cc2)oc1N1CCOCC1 [SJ000090185-1] | 17.4
9 | O=C1C(Cl)=C(NCCN2CCOCC2)C(=O)c2ncccc21 [SJ000312204-6] | 2.25
10 | CCCCCn1c(-c2ccc(F)c(Br)c2)nc2c1c(=O)[nH]c(=O)n2CCCC [SJ000378900-1] | 2.64
11 | O=C1c2ccccc2NC(c2ccc(Br)cc2)N1Cc1ccccc1 (stereo not shown) [SJ000019546-2] | 69.9
12 | CSc1nc2cc(-c3ccccc3)sc2c(=O)n1CCN1CCOCC1 [SJ000405932-1] | 69.9
13 | COc1cccc(F)c1CNCCCNc1ccnc2cc(C(F)(F)F)ccc12 [SJ000521051-1] | 69.9
14 | N#Cc1ccc(Cc2ccc3c(NCCCNCc4cccc5c4OCO5)ccnc3c2)cc1 [SJ000311304-1] | 66
15 | Cc1ccc(S(=O)(=O)c2nc(-c3ccccc3Cl)oc2N2CC(C)OC(C)C2)cc1 (stereo not shown) [SJ000329066-1] | 13
16 | CCCn1c(-c2cccc(C(F)(F)F)c2)nc2c1c(=O)[nH]c(=O)n2Cc1ccccc1 [SJ000382289-1] | 69.9
17 | O=C1c2ccccc2NC(c2ccc(Br)cc2)N1Cc1ccc(Cl)cc1 (stereo not shown) [SJ000508213-1] | 69.9
18 | Nc1nc(Nc2ccc(Cl)c(Cl)c2)nc2ccccc12 [SJ000201376-1] | 69.9
19 | FC(F)(F)c1ccc2c(NCCCNCc3ccc4[nH]ccc4c3)ccnc2c1 [SJ000521054-1] | 0.397

Row | Compound | IC50 [µM]
20 | CCCCCOc1ccc(N(C(C)=O)C2=C(Cl)C(=O)c3ccccc3C2=O)cc1 [SJ000032724-1] | 28.3
21 | N#Cc1nc(-c2ccc(Cl)cc2)oc1N1CCOCC1 [SJ000010022-1] | 69.9
22 | CCn1c2ccccc2c2cc(CN3CCN(Cc4c[nH]c5ccccc45)CC3)ccc21 [SJ000111264-1] | 69.9
23 | CCOc1ccc(-c2nc(S(=O)(=O)c3ccccc3)c(N3CCOCC3)o2)cc1 [SJ000198209-1] | 69.9
24 | FC(F)(F)c1ccc2c(NCCCNCc3c4ccccc4cc4ccccc34)ccnc2c1 [SJ000361126-1] | 69.9
25 | CCCn1c(=O)c2nc(-c3ccccc3)[nH]c2n(CCC)c1=O [SJ000832251-1] | 73
26 | CCCN1C(=O)c2ccccc2NC1c1ccc2c(c1)OCO2 (stereo not shown) [SJ000288667-1] | 69.9
27 | CC(NC1=C(Cl)C(=O)c2ccccc2C1=O)C(=O)O (stereo not shown) [SJ000244608-1] | 69.9
28 | CC(=O)Cn1cnc2cc(-c3ccccc3)sc2c1=O [SJ000448314-1] | 69.9
29 | CCCn1c(=O)[nH]c(=O)c2c1nc(-c1ccc(OC(F)F)c(OC)c1)n2CCOC [SJ000459257-1] | 69.9
30 | COc1ccc(F)cc1CNCCCNc1ccnc2cc(-c3ccc(C(C)(C)C)cc3)ccc12 [SJ000311289-1] | 4.62
31 | COc1cccc(CNCCCNc2ccnc3cc(-c4ccc5c(c4)OCO5)ccc23)c1O [SJ000311291-1] | 24.6
32 | CCn1c2ccccc2c2cc(C(C)NC=O)ccc21 (stereo not shown) [SJ000461805-1] | 69.9
33 | FC(F)(F)c1ccc2c(NCCCNCc3cccc4c3OCO4)ccnc2c1 [SJ000521048-1] | 69.9
34 | Fc1ccc(Oc2ccc3c(NCCCNCc4cccc5c4OCO5)ccnc3c2)cc1 [SJ000311224-1] | 59.6
35 | Clc1ccc2c(NCCCNCc3ccc4ccccc4c3)ccnc2c1 [SJ000523065-1] | 69.9
36 | CCCn1c(-c2ccc(C(=O)O)cc2)nc2c1c(=O)[nH]c(=O)n2Cc1ccccc1 [SJ000420129-1] | 69.9
37 | COc1ccc(-c2cc3ncn(CC(=O)NCc4ccc(Cl)cc4)c(=O)c3s2)cc1 [SJ000457991-1] | 69.9
38 | COc1cccc(CNCCCNc2ccnc3cc(Oc4cccc(N(C)C)c4)ccc23)c1O [SJ000311231-1] | 69.9

Same assay, conditions: Table 5, dose response TR-FRET screening of 59 quinoline compounds against MAGE-A11:PCF11; read-out: TR-FRET IC50

Row | Compound | IC50 [µM]
39 | FC(F)(F)c1ccc2c(NCCCNCc3cc(Br)cs3)ccnc2c1 [SJ000521056-1] | > 70
40 | CCCN(CCNc1ccnc2cc(C(F)(F)F)ccc12)Cc1ccc[nH]1 [SJ000361255-1] | > 70
41 | Clc1ccc2c(NCCCN(Cc3ccccc3)Cc3c[nH]c4ccccc34)ccnc2c1 [SJ000520433-1] | > 70
42 | CCCCCCN(CCC)CCCNc1ccnc2cc(C(F)(F)F)ccc12 [SJ000523083-1] | > 70
43 | CC(C)(C)CCN(CCCCNc1ccnc2cc(Cl)ccc12)Cc1ccccc1 [SJ000357537-2] | > 70
44 | CCCN(CCCNc1ccnc2cc(Cl)ccc12)Cc1ccc2[nH]ccc2c1 [SJ000522746-2] | 2.8

Same assay, conditions: Table 8, representative compounds; read-out: TR-FRET IC50

Row | Compound | IC50 [µM]
45 | COC(=O)c1ccc(CNCCCNc2ccnc3cc(Cl)ccc23)cc1 [SJ000523067] | 69.9
46 | FC(F)(F)c1ccc2c(NCCCNCc3ccccc3)ccnc2c1 [SJ000361107] | 69.9
47 | COc1ccc(CNCCCNc2ccnc3cc(Cl)ccc23)cc1O [SJ000311192] | 69.9
48 | FC(F)(F)c1ccccc1CNCCCNc1ccnc2cc(Cl)ccc12 [SJ000520908] | 69.9
49 | COc1ccc(F)cc1CNCCCNc1ccnc2cc(Cl)ccc12 [SJ000000500] | 69.9
50 | COc1cccc(CNCCCNc2ccnc3cc(Oc4ccccc4)ccc23)c1O [SJ000311207] | 69.9
51 | CC(C)CCc1ccc2c(NCCCNCc3cccc4c3OCO4)ccnc2c1 [SJ000311248] | 27.7
52 | COc1ccc(F)cc1CNCCCNc1ccnc2cc(Oc3cccc(N(C)C)c3)ccc12 [SJ000311233] | 5.63
53 | COc1ccc(-c2ccc3c(NCCCNCc4cccc(OC)c4O)ccnc3c2)cc1 [SJ000311295] | 69.9
54 | COC1CCCC(F)CC1CNCCCNc1ccnc2cc(CCc3ccccc3)ccc12 (stereo not shown) [SJ000311256] | 37.1
55 | CC(C)(C)c1ccc(-c2ccc3c(NCCCNCc4cccc5c4OCO5)ccnc3c2)cc1 [SJ000311288] | 6.87
56 | COc1cccc(CNCCCNc2ccnc3cc(Oc4cccc(N(C)C)c4)ccc23)c1O [SJ000311231] | 69.9
57 | Fc1cccc(C(F)(F)F)c1CNCCCNc1ccnc2cc(C(F)(F)F)ccc12 [SJ000521059] | 69.9
58 | COc1ccc(OC)c2c(O)c(CN3CCCCC3C)c(C)nc12 (stereo not shown) [SJ000280708] | > 69.9
59 | COc1cccc(CNCCCNc2ccnc3cc(Oc4ccc(Cl)cc4)ccc23)c1O [SJ000311227] | 20.7
60 | COc1cccc(CNCCCNc2ccnc3cc(-c4ccccc4)ccc23)c1O [SJ000311283] | 24.1
61 | CCC(CC)c1ccc2c(NCCCNCc3cc(F)ccc3OC)ccnc2c1 [SJ000311269] | 43
62 | CCc1ccc(CNCCCNc2ccnc3cc(Cl)ccc23)cc1 [SJ000521039] | 69.9
63 | CCc1ccc(OCc2ccccc2C(=O)Nc2ccc3nc(C)cc(N)c3c2)cc1 [SJ000855285] | 9.29
64 | Cc1cc(C)cc(Cc2ccc3c(NCCCNCc4cccc5c4OCO5)ccnc3c2)c1 [SJ000311320] | 16.3
